Literature values in patent US20130129827A1, “EXTENDED RELEASE PHARMACEUTICAL COMPOSITIONS OF PALIPERIDONE AND PROCESSES OF PREPARATION THEREOF” (RANBAXY LABORATORIES LIMITED, priority 2009, published 2013).

Conditions: background statement, species not given

## Cc1nc2n(c(=O)c1CCN1CCC(c3noc4cc(F)ccc34)CC1)CCCC2O (racemic) [Paliperidone, (±)-3-[2-[4-(6-fluoro-1,2-benzisoxazol-3-yl)-1-piperidinyl]ethyl]-6,7,8,9-tetrahydro-9-hydroxy-2-methyl-4H-pyrido[1,2-a]pyrimidin-4-one]
  half-life: about a day
